Earlier results on one substance are cited in patent US4127527A, “Novel pentadecapeptides, intermediates therefor, and compositions and methods employing said pentadecapeptides” (priority 1977, dated 1978).

For one data set, the system named is rat. As to conditions: injected directly into the brain of the rat; Belluzzi et al., Nature 260, 625 (1976).
For data set [1], the system named is brain opiate receptor sites. As to conditions: natural peptide; Bradbury et al., Nature 260, 793 (1976).

Consider “H-Tyr-Gly-Gly-Phe-Met-OH [methionine enkephalin]”, for which the analgesic activity entry with rat is recorded as “only weak analgesic agent of short duration”. The “binding to partially purified brain opiate receptor sites” value in data set [1] is “binds stereo-specifically”.
